# Assay results taken from paper PMC7287031 (Pharmacology Research & Perspectives, 2020).
# Tests used:
# [1] = Human ADME study: total radioactivity PK in blood and plasma (AMS); type: in vivo; conditions: single oral 600 mg [14C] ribociclib, N=6
# Protocol: Subjects continued to fast for 4 hours after drug administration. […] Urine was collected from 0‐6, 6‐12, and 12‐24 h post dose, then over 24‐hour intervals until 504 hours post dose. Feces was collected over 24‐h intervals until 504 hours post dose, during which time the volunteers were confined to the clinic. Vomitus was also scheduled to be collected for 12 hours post dosing. However, no volunteers vomited during the study. […] Electrostatics Corporation 1.5SDH Compact AMS System (Middleton) in the bioanalytical laboratory of Accium BioSciences, Seattle, WA, USA. A known aliquot of each blood and plasma specimen was transferred to a prebaked quartz tube. […] An AMS batch consisted of unknown specimens and chemical blank(s) to monitor for any in‐process contamination. The samples were then dried using vacuum centrifugation and submitted to graphitization. Graphitization consisted of combustion of samples followed by reduction to graphite according to published methods. ^12 Briefly, approximately 200‐mg copper oxide was added to each combustion tube containing the dried sample residue. The combustion tubes were flame‐sealed under vacuum and combusted at approximately 900°C to form carbon dioxide (CO2). Combusted samples were then attached to a disposable transfer system connected to a septa‐sealed vial. […]
# [2] = Human ADME study: quantitative metabolite profiling in plasma; type: in vivo; conditions: human plasma pools n=6, from metabolite patterns
# Protocol: A plasma pool across the six healthy volunteers included in the study was prepared at the time points of 1 hour, 3 hours, 24 hours, and 48 hours post dose. For each time point, an equal volume of plasma was taken from each subject and combined. Plasma pool samples were processed by protein precipitation with acetonitrile. The protein pellet that resulted from precipitation with acetonitrile was washed further with additional aliquots of acetonitrile. All acetonitrile washes were combined and evaporated under nitrogen. For the 3‐ and 24‐hour plasma pools, the extraction procedure was slightly modified, including precipitation of the plasma proteins by addition of a 1:1 mixture of acetonitrile:methanol, followed by washing of the protein pellet with the same solvent mixture. All extracts were reconstituted with a solution of 15‐mM ammonium formate and acetonitrile (95:5 v/v). Extraction and reconstitution recoveries were measured in all four plasma samples in order to calculate and overall recovery. Quantitative metabolite profiling in plasma was accomplished using a Shimadzu Prominence high‐performance liquid chromatography (HPLC) system (Shimadzu, Columbia, MD, USA), coupled with fraction collection and analysis of total radioactivity in individual fractions using AMS (as described above). A second injection of each sample, conducted immediately after the first, was used to provide HPLC fractions for metabolite identification. The fractions identified as containing radioactivity from the AMS analysis were analyzed by HPLC coupled with high‐resolution mass spectrometry to identify the metabolites. The HPLC‐MS/MS methodology used is described below.
compound,measurement,setting,value
"CN(C)C(=O)c1cc2cnc(Nc3ccc(N4CCNCC4)cn3)nc2n1C1CCCC1 [ribociclib, Ribociclib]","tlast of total radioactivity, median",[1]; human blood,504 h
same,"tlast of total radioactivity, median",[1]; human plasma,504 h
same,"AUC0-48h, % of total [14C]-AUC0-48",[2],approximately 43.5%
same,"AUC0-48h, % of total [14C]-AUC0-48",[2]; listed as Ribociclib,43.5%
